# pIC50: −log10 of the molar value. Counter-ions that a name gives are not always drawn. Like-named read-outs stand apart in the source and are kept apart here.
# Columns and labels:
# Format in all cases: biochemical
# PI3Kδ = PI3Kδ (Homo sapiens (Human), UniProt O00329); assay: TR-FRET enzymatic assay of PI3K isoforms (PI3Kδ); details: 2×Km ATP, 2 μM PIP2, incubated for 30 minutes at 25° C., read-out: δ IC50
# Method: (§1) The compounds of formula (I) were characterized for their enzymatic activity against the PI3K isoforms. Certain compounds of the present application, including certain compounds of formula (II) and (III) were also characterized for their enzymatic activity against PI3K isoforms. The activities were measured using a time-resolved fluorescence resonance energy transfer (TR-FRET) assay.
# PI3Kβ = PI3Kβ (Homo sapiens (Human), UniProt P42338); assay: TR-FRET enzymatic assay of PI3K isoforms (PI3Kβ); details: TR-FRET, 2×Km ATP, 2 μM PIP2, incubated for 30 minutes at 25° C.; read-out: β IC50
# Chain of PI3Kβ (P42338 whole entry, canonical isoform): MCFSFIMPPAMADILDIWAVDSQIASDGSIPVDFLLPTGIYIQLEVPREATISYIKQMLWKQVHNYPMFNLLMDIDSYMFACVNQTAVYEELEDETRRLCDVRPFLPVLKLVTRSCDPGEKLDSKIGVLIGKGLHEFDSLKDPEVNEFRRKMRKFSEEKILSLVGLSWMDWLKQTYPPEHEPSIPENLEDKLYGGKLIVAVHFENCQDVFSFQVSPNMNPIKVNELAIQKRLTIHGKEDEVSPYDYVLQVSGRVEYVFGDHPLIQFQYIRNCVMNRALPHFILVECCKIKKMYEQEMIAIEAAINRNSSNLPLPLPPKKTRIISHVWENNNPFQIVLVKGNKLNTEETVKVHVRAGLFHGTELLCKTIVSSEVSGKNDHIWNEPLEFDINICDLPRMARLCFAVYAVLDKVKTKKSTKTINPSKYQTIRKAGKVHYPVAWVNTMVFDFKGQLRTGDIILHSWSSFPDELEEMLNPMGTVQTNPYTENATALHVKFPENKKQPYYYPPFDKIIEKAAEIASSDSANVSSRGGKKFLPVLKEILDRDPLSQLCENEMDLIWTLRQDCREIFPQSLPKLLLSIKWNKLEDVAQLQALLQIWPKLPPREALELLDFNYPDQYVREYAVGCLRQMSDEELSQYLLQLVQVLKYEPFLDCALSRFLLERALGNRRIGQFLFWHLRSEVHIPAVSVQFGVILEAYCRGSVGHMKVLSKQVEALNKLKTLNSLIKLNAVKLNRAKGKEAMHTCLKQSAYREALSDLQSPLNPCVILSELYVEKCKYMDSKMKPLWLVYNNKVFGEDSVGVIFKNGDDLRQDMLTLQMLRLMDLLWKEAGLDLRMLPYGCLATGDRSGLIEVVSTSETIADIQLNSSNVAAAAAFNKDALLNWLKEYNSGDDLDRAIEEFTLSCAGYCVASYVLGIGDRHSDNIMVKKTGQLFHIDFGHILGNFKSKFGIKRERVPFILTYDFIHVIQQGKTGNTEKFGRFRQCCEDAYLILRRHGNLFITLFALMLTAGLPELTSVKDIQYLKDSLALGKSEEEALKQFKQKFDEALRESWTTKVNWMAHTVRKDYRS
# Chain of PI3Kβ (P27986 whole entry partner, canonical isoform): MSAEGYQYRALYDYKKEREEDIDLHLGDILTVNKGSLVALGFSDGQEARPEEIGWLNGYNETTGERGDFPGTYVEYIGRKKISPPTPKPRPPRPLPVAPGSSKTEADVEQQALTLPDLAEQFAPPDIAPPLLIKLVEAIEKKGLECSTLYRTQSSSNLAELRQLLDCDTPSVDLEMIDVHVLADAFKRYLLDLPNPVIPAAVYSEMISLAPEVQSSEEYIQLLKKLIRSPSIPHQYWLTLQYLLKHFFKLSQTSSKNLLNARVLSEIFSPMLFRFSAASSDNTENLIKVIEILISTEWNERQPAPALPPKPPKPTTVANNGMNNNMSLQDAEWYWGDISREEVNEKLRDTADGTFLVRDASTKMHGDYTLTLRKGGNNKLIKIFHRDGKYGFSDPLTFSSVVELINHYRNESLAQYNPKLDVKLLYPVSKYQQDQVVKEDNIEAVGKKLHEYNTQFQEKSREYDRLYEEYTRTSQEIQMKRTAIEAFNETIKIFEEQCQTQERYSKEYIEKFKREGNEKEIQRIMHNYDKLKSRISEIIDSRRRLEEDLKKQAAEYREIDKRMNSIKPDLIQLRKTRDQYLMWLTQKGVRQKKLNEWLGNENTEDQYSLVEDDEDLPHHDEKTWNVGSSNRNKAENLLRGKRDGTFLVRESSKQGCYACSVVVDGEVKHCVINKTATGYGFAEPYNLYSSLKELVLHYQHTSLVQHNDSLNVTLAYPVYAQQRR
# Method: as §1
# PI3Kγ = PI3Kγ (Homo sapiens (Human), UniProt P48736); assay: TR-FRET enzymatic assay of PI3K isoforms (PI3Kγ); details: read-out: γ IC50
# Chain of PI3Kγ (P48736 whole entry, canonical isoform): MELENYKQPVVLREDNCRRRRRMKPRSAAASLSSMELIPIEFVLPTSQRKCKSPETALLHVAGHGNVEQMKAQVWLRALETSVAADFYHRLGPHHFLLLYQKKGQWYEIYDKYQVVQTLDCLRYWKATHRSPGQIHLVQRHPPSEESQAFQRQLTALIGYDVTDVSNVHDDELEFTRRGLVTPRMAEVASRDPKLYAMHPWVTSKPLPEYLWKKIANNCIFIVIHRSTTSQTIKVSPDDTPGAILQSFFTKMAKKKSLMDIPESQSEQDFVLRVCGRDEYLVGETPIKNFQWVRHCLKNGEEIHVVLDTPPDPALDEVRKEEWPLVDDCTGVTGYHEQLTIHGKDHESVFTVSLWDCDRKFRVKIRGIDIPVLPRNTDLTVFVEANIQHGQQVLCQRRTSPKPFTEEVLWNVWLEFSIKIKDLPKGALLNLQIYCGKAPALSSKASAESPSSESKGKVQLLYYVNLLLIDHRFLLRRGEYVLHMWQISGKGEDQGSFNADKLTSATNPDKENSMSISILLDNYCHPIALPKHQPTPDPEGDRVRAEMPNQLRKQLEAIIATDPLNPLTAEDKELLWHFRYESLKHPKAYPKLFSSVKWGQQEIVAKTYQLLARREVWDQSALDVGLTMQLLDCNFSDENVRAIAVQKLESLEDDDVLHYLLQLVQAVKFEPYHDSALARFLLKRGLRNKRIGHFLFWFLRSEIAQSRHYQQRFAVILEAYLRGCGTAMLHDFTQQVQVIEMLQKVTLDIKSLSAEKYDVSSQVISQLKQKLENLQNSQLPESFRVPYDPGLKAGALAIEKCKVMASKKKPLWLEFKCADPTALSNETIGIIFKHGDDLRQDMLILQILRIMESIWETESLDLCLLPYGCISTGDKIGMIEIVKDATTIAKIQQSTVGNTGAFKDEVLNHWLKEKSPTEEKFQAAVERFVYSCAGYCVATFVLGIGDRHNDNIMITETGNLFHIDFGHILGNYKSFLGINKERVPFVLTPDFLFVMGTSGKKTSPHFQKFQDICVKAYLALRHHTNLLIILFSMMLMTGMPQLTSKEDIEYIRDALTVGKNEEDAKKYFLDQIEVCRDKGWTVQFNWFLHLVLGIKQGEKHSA
# Chain of PI3Kγ (Q8WYR1 whole entry partner, canonical isoform): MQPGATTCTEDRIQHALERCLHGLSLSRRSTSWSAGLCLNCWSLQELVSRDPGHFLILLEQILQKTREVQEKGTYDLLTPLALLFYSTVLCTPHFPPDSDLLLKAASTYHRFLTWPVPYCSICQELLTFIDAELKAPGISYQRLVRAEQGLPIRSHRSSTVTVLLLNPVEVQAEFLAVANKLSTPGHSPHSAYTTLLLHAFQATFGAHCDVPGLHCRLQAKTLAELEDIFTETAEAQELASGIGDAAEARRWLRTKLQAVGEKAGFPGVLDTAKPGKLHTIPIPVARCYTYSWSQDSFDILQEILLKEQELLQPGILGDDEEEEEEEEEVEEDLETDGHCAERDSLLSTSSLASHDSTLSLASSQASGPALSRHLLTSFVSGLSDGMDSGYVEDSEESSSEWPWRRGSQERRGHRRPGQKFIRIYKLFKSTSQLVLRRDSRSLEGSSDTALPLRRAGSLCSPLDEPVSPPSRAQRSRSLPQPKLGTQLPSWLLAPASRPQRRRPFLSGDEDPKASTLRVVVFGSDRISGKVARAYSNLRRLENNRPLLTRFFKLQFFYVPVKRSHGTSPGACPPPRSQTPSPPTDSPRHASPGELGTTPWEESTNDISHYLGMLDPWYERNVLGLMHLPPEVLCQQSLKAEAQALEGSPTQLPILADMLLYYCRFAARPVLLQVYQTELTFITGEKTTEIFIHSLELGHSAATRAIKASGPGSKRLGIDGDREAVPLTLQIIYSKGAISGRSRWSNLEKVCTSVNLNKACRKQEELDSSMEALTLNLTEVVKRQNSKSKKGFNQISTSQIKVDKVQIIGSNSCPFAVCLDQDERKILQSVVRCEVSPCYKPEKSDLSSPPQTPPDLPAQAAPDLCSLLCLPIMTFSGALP
# Method: as §1
# [1] = TR-FRET, 2×Km ATP, 2 μM PIP2, PI3Kγ at 2 nM, incubated for 30 minutes at 25° C.
# Chain of PI3Kδ (O00329 whole entry, canonical isoform): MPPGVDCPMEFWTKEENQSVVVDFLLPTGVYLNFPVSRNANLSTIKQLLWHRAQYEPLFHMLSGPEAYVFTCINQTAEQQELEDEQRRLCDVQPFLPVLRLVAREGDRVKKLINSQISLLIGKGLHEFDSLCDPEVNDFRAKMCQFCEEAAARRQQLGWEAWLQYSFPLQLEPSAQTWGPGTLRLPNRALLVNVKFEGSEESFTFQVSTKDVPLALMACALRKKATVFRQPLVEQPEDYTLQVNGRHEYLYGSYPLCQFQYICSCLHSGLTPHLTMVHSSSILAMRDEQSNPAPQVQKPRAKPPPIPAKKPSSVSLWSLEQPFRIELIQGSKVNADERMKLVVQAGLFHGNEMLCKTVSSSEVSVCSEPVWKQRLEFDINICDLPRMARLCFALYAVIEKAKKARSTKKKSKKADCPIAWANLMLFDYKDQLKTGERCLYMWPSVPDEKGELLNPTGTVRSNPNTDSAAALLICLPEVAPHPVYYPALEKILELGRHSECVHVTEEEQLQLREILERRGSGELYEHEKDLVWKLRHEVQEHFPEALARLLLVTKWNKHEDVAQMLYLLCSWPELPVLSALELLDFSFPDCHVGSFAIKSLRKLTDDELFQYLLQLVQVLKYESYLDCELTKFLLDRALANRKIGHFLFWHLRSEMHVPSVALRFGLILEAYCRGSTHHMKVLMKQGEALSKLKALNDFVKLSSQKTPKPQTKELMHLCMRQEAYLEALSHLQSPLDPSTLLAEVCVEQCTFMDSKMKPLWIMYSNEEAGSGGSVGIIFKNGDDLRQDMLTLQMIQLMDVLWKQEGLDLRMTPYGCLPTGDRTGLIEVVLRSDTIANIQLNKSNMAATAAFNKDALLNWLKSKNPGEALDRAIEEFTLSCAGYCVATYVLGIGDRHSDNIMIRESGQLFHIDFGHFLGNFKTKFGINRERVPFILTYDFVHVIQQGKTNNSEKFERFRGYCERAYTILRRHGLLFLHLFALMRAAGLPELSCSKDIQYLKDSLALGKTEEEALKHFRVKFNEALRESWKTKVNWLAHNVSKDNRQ
# Chain of PI3Kδ (P27986 whole entry partner, canonical isoform): as the sequence (P27986 whole entry partner, canonical isoform) above
SMILES,pIC50 (PI3Kδ),pIC50 (PI3Kβ),pIC50 (PI3Kγ; [1]),pIC50 (PI3Kγ)
"C[C@H](Nc1ncnc2[nH]cnc12)c1nc2cccc(Cl)c2c(=O)n1-c1cccc(NC(=O)Nc2ccccc2C(F)(F)F)c1 [Compound 102, (S)-1-(3-(2-(1-((9H-purin-6-yl)amino)ethyl)-5-chloro-4-oxoquinazolin-3(4H)-yl)phenyl)-3-(2-(trifluoromethyl)phenyl)urea]",7.51,8.15,6.17,–
"C[C@H](Nc1ncnc2[nH]cnc12)c1nc2cccc(Cl)c2c(=O)n1-c1cccc(NC(=O)Nc2c(Cl)cccc2Cl)c1 [Compound 104, (S)-1-(3-(2-(1-((9H-purin-6-yl)amino)ethyl)-5-chloro-4-oxoquinazolin-3(4H)-yl)phenyl)-3-(2,6-dichlorophenyl)urea]",7.52,8.10,6.13,–
"C[C@H](Nc1ncnc(N)c1C#N)c1nc2cccc(Cl)c2c(=O)n1-c1cccc(NC(=O)Nc2ccccc2C#N)c1 [Compound 106, (S)-1-(3-(2-(1-((6-amino-5-cyanopyrimidin-4-yl)amino)ethyl)-5-chloro-4-oxoquinazolin-3(4H)-yl)phenyl)-3-(2-cyanophenyl)urea]",7.70,5.32,–,< 5.00
"Cc1ccccc1NC(=O)Nc1cccc(-n2c([C@H](C)Nc3ncnc(N)c3C#N)nc3cccc(Cl)c3c2=O)c1 [Compound 107, (S)-1-(3-(2-(1-((6-amino-5-cyanopyrimidin-4-yl)amino)ethyl)-5-chloro-4-oxoquinazolin-3(4H)-yl)phenyl)-3-(o-tolyl)urea]",8.22,7.80,5.82,–
"C[C@H](Nc1ncnc(N)c1C#N)c1nc2cccc(F)c2c(=O)n1-c1cccc(NC(=O)Nc2ccccc2Cl)c1 [Compound 108, (S)-1-(3-(2-(1-((6-amino-5-cyanopyrimidin-4-yl)amino)ethyl)-5-fluoro-4-oxoquinazolin-3(4H)-yl)phenyl)-3-(2-chlorophenyl)urea]",7.62,8.52,5.07,–
"COc1ccccc1NC(=O)Nc1cccc(-n2c([C@H](C)Nc3ncnc(N)c3C#N)nc3cccc(Cl)c3c2=O)c1 [Compound 109, (S)-1-(3-(2-(1-((6-amino-5-cyanopyrimidin-4-yl)amino)ethyl)-5-chloro-4-oxoquinazolin-3(4H)-yl)phenyl)-3-(2-methoxyphenyl)urea]",8.70,8.05,5.59,–
"C[C@H](Nc1ncnc(N)c1C#N)c1nc2cccc(F)c2c(=O)n1-c1cccc(NC(=O)Nc2ccccc2C(F)(F)F)c1 [Compound 110, (S)-1-(3-(2-(1-((6-amino-5-cyanopyrimidin-4-yl)amino)ethyl)-5-fluoro-4-oxoquinazolin-3(4H)-yl)phenyl)-3-(2-(trifluoromethyl)phenyl)urea]",7.24,7.80,< 5.00,–
"C[C@H](Nc1ncnc(N)c1C#N)c1nc2cccc(Cl)c2c(=O)n1-c1cccc(NC(=O)Nc2ccncc2Cl)c1 [Compound 111, (S)-1-(3-(2-(1-((6-amino-5-cyanopyrimidin-4-yl)amino)ethyl)-5-chloro-4-oxoquinazolin-3(4H)-yl)phenyl)-3-(3-chloropyridin-4-yl)urea, trifluoroacetic acid salt]",8.15,8.40,5.37,–
"C[C@H](Nc1ncnc2[nH]cnc12)c1nc2cccc(Cl)c2c(=O)n1-c1cccc(NC(=O)Nc2ccncc2Cl)c1 [Compound 112, (S)-1-(3-(2-(1-((9H-purin-6-yl)amino)ethyl)-5-chloro-4-oxoquinazolin-3(4H)-yl)phenyl)-3-(3-chloropyridin-4-yl)urea]",7.59,8.22,5.80,–
"C[C@H](Nc1ncnc(N)c1C#N)c1nc2cccc(Cl)c2c(=O)n1-c1cccc(NC(=O)Nc2nnn[nH]2)c1 [Compound 114, (S)-1-(3-(2-(1-((6-amino-5-cyanopyrimidin-4-yl)amino)ethyl)-5-chloro-4-oxoquinazolin-3(4H)-yl)phenyl)-3-(1H-tetrazol-5-yl)urea]",8.00,7.43,5.42,–
"CONC(=O)Nc1cccc(-n2c([C@H](C)Nc3ncnc(N)c3C#N)nc3cccc(Cl)c3c2=O)c1 [Compound 115, (S)-1-(3-(2-(1-((6-amino-5-cyanopyrimidin-4-yl)amino)ethyl)-5-chloro-4-oxoquinazolin-3(4H)-yl)phenyl)-3-methoxyurea]",8.30,7.85,5.43,–
"C[C@H](Nc1ncnc(N)c1C#N)c1nc2cccc(Cl)c2c(=O)n1-c1cccc(NC(=O)NCCN(C)C)c1 [Compound 116, (S)-1-(3-(2-(1-((6-amino-5-cyanopyrimidin-4-yl)amino)ethyl)-5-chloro-4-oxoquinazolin-3(4H)-yl)phenyl)-3-(2-(dimethylamino)ethyl)urea, trifluoroacetic acid salt]",8.40,8.70,< 5.00,–
"C[C@H](Nc1ncnc(N)c1C#N)c1nc2cccc(Cl)c2c(=O)n1-c1cccc(NC(=O)NCCO)c1 [Compound 117, (S)-1-(3-(2-(1-((6-amino-5-cyanopyrimidin-4-yl)amino)ethyl)-5-chloro-4-oxoquinazolin-3(4H)-yl)phenyl)-3-(2-hydroxyethyl)urea]",8.22,8.40,5.08,–
"C[C@H](Nc1ncnc(N)c1C#N)c1nc2cccc(Cl)c2c(=O)n1-c1cccc(NC(=O)Nc2ccccc2)c1 [Compound 118, (S)-1-(3-(2-(1-((6-amino-5-cyanopyrimidin-4-yl)amino)ethyl)-5-chloro-4-oxoquinazolin-3(4H)-yl)phenyl)-3-phenylurea]",8.10,8.52,6.00,–
"C[C@H](Nc1ncnc(N)c1C#N)c1nc2cccc(Cl)c2c(=O)n1-c1cccc(NC(=O)Nc2cccnc2)c1 [Compound 119, (S)-1-(3-(2-(1-((6-amino-5-cyanopyrimidin-4-yl)amino)ethyl)-5-chloro-4-oxoquinazolin-3(4H)-yl)phenyl)-3-(pyridin-3-yl)urea, trifluoroacetic acid salt]",8.30,8.52,5.85,–
"CC(C)NC(=O)Nc1cccc(-n2c([C@H](C)Nc3ncnc(N)c3C#N)nc3cccc(Cl)c3c2=O)c1 [Compound 120, (S)-1-(3-(2-(1-((6-amino-5-cyanopyrimidin-4-yl)amino)ethyl)-5-chloro-4-oxoquinazolin-3(4H)-yl)phenyl)-3-isopropylurea]",8.15,8.05,5.32,–
"C[C@H](Nc1ncnc(N)c1C#N)c1nc2cccc(Cl)c2c(=O)n1-c1cccc(NC(=O)NC2CCCC2)c1 [Compound 121, (S)-1-(3-(2-(1-((6-amino-5-cyanopyrimidin-4-yl)amino)ethyl)-5-chloro-4-oxoquinazolin-3(4H)-yl)phenyl)-3-cyclopentylurea]",8.52,8.52,5.80,–
"C[C@H](Nc1ncnc(N)c1C#N)c1nc2cccc(Cl)c2c(=O)n1-c1cccc(NC(=O)NC2CCCCC2)c1 [Compound 122, (S)-1-(3-(2-(1-((6-amino-5-cyanopyrimidin-4-yl)amino)ethyl)-5-chloro-4-oxoquinazolin-3(4H)-yl)phenyl)-3-cyclohexylurea]",8.40,8.52,5.70,–
"C[C@H](Nc1ncnc(N)c1C#N)c1nc2cccc(Cl)c2c(=O)n1-c1cccc(NC(=O)NC2CCC2)c1 [Compound 123, (S)-1-(3-(2-(1-((6-amino-5-cyanopyrimidin-4-yl)amino)ethyl)-5-chloro-4-oxoquinazolin-3(4H)-yl)phenyl)-3-cyclobutylurea]",8.52,8.15,5.66,–
"C[C@H](Nc1ncnc(N)c1C#N)c1nc2cccc(Cl)c2c(=O)n1-c1cccc(NC(=O)NC(C)(C)C)c1 [Compound 124, (S)-1-(3-(2-(1-((6-amino-5-cyanopyrimidin-4-yl)amino)ethyl)-5-chloro-4-oxoquinazolin-3(4H)-yl)phenyl)-3-(tert-butyl)urea]",8.05,7.85,5.48,–
"C[C@H](Nc1ncnc(N)c1C#N)c1nc2cccc(Cl)c2c(=O)n1-c1cccc(NC(=O)NC2CC2)c1 [Compound 125, (S)-1-(3-(2-(1-((6-amino-5-cyanopyrimidin-4-yl)amino)ethyl)-5-chloro-4-oxoquinazolin-3(4H)-yl)phenyl)-3-cyclopropylurea]",8.15,8.15,5.47,–
"CCCNC(=O)Nc1cccc(-n2c([C@H](C)Nc3ncnc(N)c3C#N)nc3cccc(Cl)c3c2=O)c1 [Compound 126, (S)-1-(3-(2-(1-((6-amino-5-cyanopyrimidin-4-yl)amino)ethyl)-5-chloro-4-oxoquinazolin-3(4H)-yl)phenyl)-3-propylurea]",8.40,8.10,5.54,–
"C[C@H](Nc1ncnc(N)c1C#N)c1nc2cccc(Cl)c2c(=O)n1-c1cccc(NC(=O)NCCF)c1 [Compound 127, (S)-1-(3-(2-(1-((6-amino-5-cyanopyrimidin-4-yl)amino)ethyl)-5-chloro-4-oxoquinazolin-3(4H)-yl)phenyl)-3-(2-fluoroethyl)urea]",8.30,8.10,5.24,–
"C[C@H](Nc1ncnc(N)c1C#N)c1nc2cccc(Cl)c2c(=O)n1-c1cccc(NC(=O)NCCCO)c1 [Compound 128, (S)-1-(3-(2-(1-((6-amino-5-cyanopyrimidin-4-yl)amino)ethyl)-5-chloro-4-oxoquinazolin-3(4H)-yl)phenyl)-3-(3-hydroxypropyl)urea]",8.40,8.05,5.25,–

# Source: patent US10221197B2, “Phosphatidylinositol 3-kinase inhibitors” (Gilead Sciences, Inc., priority 2014, dated 2019)
